# Earlier results in patent US20260102357A1, “Sulfur-Containing Ionizable Lipids for the Delivery of Therapeutic Agents” (NanoVation Therapeutics Inc., priority 2022, published 2026).
# Conditions: delivery of siRNA; fold less siRNA than KC2
smiles,measurement,value
"CCCCC/C=C\C/C=C\CCCCCCCCC(CCCCCCCC/C=C\C/C=C\CCCCC)OC(=O)CCCN(C)C [MC3, DLin-MC3-DMA]",siRNA required relative to KC2,about 3 times less
